In the Kinase Knowledgebase extract (Sharma et al. 2016):

biological target: ROCK2 (human) (UniProt O75116); experiment: Assessment of ROCK2 Kinase Activity
Sequence (O75116 whole entry, looked up): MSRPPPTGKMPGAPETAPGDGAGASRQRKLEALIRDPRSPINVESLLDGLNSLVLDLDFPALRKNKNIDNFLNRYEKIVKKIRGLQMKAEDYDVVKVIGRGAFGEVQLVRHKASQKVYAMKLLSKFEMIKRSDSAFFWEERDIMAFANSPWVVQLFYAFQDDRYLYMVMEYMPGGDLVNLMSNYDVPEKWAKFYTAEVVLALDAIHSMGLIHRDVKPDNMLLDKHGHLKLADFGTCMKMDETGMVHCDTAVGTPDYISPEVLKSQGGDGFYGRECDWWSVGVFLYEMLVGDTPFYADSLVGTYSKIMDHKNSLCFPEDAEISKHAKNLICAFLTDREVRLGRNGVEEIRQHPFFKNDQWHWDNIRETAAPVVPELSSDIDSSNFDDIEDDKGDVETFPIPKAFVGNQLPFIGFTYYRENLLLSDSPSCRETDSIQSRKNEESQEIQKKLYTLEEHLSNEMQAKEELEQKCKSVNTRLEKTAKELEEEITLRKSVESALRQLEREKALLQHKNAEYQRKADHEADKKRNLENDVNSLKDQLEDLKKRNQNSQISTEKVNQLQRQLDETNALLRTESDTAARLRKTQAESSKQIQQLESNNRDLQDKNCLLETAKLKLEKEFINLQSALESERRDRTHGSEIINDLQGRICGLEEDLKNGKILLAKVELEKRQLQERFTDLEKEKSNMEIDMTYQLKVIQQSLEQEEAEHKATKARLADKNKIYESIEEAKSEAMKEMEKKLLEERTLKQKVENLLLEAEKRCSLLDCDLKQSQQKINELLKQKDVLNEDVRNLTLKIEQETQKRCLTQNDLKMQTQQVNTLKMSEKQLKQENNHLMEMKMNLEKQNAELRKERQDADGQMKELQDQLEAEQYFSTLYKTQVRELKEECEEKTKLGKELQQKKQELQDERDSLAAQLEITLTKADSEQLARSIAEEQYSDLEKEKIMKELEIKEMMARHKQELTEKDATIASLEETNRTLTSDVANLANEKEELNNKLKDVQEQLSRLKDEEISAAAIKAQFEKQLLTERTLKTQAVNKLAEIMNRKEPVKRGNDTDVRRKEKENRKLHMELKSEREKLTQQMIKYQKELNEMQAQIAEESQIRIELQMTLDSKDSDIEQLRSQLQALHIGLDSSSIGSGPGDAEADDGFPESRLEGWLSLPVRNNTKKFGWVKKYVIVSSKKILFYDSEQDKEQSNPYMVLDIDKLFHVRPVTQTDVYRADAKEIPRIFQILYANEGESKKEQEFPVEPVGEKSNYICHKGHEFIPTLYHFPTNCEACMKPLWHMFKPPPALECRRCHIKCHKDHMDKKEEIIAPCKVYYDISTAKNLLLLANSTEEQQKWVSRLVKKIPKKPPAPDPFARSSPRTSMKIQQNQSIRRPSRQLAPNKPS

IC50, ≤ 1 µM:
NCC1(c2ccc(Cl)c(Cl)c2)CCC(Oc2cc3cc[nH]c(=O)c3cc2Cl)CC1 (stereo unspecified)
NC1(CC(O)CO)CCC(Oc2cc3cc[nH]c(=O)c3cc2Cl)CC1 (stereo unspecified)
COc1ccc(C2(CN)CCC(Oc3cc4cc[nH]c(=O)c4cc3Cl)CC2)cc1OC (stereo unspecified)
COc1ccc(C2(CN)CCC(Oc3cc4cc[nH]c(=O)c4cc3Cl)CC2)cc1 (stereo unspecified)
C=CCC1(N)CCC(Oc2cc3cc[nH]c(=O)c3cc2Cl)CC1 (stereo unspecified)
NCC1(c2ccc(Cl)cc2)CCC(Oc2cc3cc[nH]c(=O)c3cc2Cl)CC1 (stereo unspecified)
NCC1(c2ccc(F)cc2)CCC(Oc2cc3cc[nH]c(=O)c3cc2Cl)CC1 (stereo unspecified)
N[C@]1(C2CC2)CC[C@H](Oc2cc3cc[nH]c(=O)c3cc2Cl)CC1
NCC1(c2ccccc2)CCC(Oc2cc3ccncc3cc2Cl)CC1 (stereo unspecified)
NCC1(c2ccccc2)CCC(Oc2cc3cc[nH]c(=O)c3cc2Cl)CC1 (stereo unspecified)
NCC1(c2cccc(Cl)c2)CCC(Oc2cc3cc[nH]c(=O)c3cc2Cl)CC1 (stereo unspecified)
